Molecules are shown by their SMILES.

For this assay, the target named is T1, PELa (P. expansum Lactonase) (Penicillium expansum, UniProt A0A0A2K035).
T1 construct: gene PEX2_072460
Briefly: UV absorbance at […] nm, initial rates, Michaelis-Menten fit. The class given is biochemical. The note with it: 100 mM Tris-HCl pH 7.5, NaCl, 100 µM ZnCl2, 25 °C; 0.6 μM enzyme, 0-0.4 mM patulin.

T1 sequence (A0A0A2K035 entry or part of it): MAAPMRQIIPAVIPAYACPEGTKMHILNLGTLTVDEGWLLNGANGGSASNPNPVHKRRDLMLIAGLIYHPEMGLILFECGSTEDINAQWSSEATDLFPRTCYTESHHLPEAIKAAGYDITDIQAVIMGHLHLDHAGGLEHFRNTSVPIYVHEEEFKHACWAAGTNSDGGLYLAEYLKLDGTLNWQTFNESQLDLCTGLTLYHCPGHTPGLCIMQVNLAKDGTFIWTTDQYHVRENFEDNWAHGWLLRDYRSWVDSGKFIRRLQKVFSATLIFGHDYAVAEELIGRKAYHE

Consider `O=C1C=C2C(=CCOC2O)O1` (stereo not shown) [patulin], for which the Km is 377 ± 112 µM.
